Measurements from patent US7365095B2, “Chromane and chromene derivatives and uses thereof” (Wyeth, priority 2005, dated 2008).
Counter-ions that a name gives are not always drawn.

Legend:
human 5-HT2C receptor = molecular target: T1, human 5-HT2C receptor (Homo sapiens, UniProt P28335); assay: calcium mobilization (FLIPR) in CHO cells stably expressing the human 5-HT2C receptor; assay type: cell-based; conditions: for Emax: CHO, read-out: 5-HT2C Function EMax (%); for EC50: calcium mobilization, read-out: 5-HT2C Function EC50
T1 sequence (P28335 33-458): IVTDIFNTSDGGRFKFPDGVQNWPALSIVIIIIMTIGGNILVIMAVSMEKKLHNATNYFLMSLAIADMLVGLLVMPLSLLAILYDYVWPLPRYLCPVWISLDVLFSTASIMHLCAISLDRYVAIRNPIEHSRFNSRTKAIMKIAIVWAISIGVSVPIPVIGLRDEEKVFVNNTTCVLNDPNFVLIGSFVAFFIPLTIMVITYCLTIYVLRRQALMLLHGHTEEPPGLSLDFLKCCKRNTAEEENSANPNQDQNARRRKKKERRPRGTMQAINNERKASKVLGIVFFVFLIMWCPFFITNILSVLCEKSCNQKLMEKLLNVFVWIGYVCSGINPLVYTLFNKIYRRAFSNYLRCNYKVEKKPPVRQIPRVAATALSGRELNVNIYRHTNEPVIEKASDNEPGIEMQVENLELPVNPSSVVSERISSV

[1] = molecular target: T2, human 5-hydroxytryptamine-2C (h5-HT2C) receptor (Homo sapiens, UniProt P28335); assay: [125I]DOI binding to membranes of CHO cells expressing h5-HT2C receptor; conditions: read-out: 5-HT2C Binding Ki avg
T2 construct: expressed in transfected cells; host or cells: CHO (Chinese Hamster Ovary) cells; membrane preparation
T2 sequence (P28335 33-458): T1 sequence (P28335 33-458)

SMILES | Emax (human 5-HT2C receptor) [%] | EC50 (human 5-HT2C receptor) [nM] | Ki [1] [nM]
NC[C@H]1CCc2cccc(-c3cccnc3)c2O1 [Compound 18, {[(2R)-8-pyridin-3-yl-3,4-dihydro-2H-chromen-2-yl]methyl}amine hydrochloride] | 90 | < 50 | > 50
CNC[C@@H]1CCc2cccc(-c3ccccc3Cl)c2O1 [Compound 19, {[(2S)-8-(2-chlorophenyl)-3,4-dihydro-2H-chromen-2-yl]methyl}methylamine hydrochloride] | 80 | 50 to 200 | ≤ 10
CNC[C@@H]1CCc2cccc(-c3cc(Cl)ccc3Cl)c2O1 [Compound 20, {[(2S)-8-(2,5-dichlorophenyl)-3,4-dihydro-2H-chromen-2-yl]methyl}methylamine hydrochloride] | 90 | < 50 | ≤ 10
CNC[C@@H]1CCc2cccc(-c3ccc(Cl)cc3Cl)c2O1 [Compound 21, {[(2S)-8-(2,4-dichlorophenyl)-3,4-dihydro-2H-chromen-2-yl]methyl}methylamine hydrochloride] | 80 | 50 to 200 | > 50
CNC[C@@H]1CCc2cccc(-c3ccc(OC)cc3OC)c2O1 [Compound 24, {[(2S)-8-(2,4-dimethoxyphenyl)-3,4-dihydro-2H-chromen-2-yl]methyl}methylamine hydrochloride] | 100 | 50 to 200 | 10 to 50
CNC[C@@H]1CCc2cccc(-c3ccccc3C)c2O1 [Compound 25, N-methyl-1-[(2S)-8-(2-methylphenyl)-3,4-dihydro-2H-chromen-2-yl]methanamine hydrochloride] | 90 | > 200 | 10 to 50
NC[C@@H]1CCc2cccc(-c3ccccc3Cl)c2O1 [Compound 27, {[(2S)-8-(2-chlorophenyl)-3,4-dihydro-2H-chromen-2-yl]methyl}amine hydrochloride] | 80 | 50 to 200 | 10 to 50
NC[C@@H]1CCc2cccc(-c3cc(Cl)ccc3Cl)c2O1 [Compound 28, {[(2S)-8-(2,5-dichlorophenyl)-3,4-dihydro-2H-chromen-2-yl]methyl}amine hydrochloride] | 100 | 50 to 200 | 10 to 50
NC[C@@H]1CCc2cccc(-c3ccc(Cl)cc3Cl)c2O1 [Compound 29, {[(2S)-8-(2,4-dichlorophenyl)-3,4-dihydro-2H-chromen-2-yl]methyl}amine hydrochloride] | 80 | > 200 | 10 to 50
COc1ccc(-c2cccc3c2O[C@H](CN)CC3)c(OC)c1 [Compound 32, {[(2S)-8-(2,4-dimethoxyphenyl)-3,4-dihydro-2H-chromen-2-yl]methyl}amine hydrochloride] | 90 | 50 to 200 | 10 to 50
Cc1ccccc1-c1cccc2c1O[C@H](CN)CC2 [Compound 33, {[(2S)-8-(2-methylphenyl)-3,4-dihydro-2H-chromen-2-yl]methyl}amine hydrochloride] | 80 | > 200 | 10 to 50
CNC[C@H]1CCc2cccc(-c3c(Cl)cccc3Cl)c2O1 [Compound 35, {[(2R)-8-(2,6-dichlorophenyl)-3,4-dihydro-2H-chromen-2-yl]methyl}methylamine hydrochloride] | 90 | < 50 | ≤ 10
NCC1CCc2cc(F)cc(-c3ccccc3Cl)c2O1 (stereo not drawn) [Compound 37, {[8-(2-chlorophenyl)-6-fluoro-3,4-dihydro-2H-chromen-2-yl]methyl}amine hydrochloride] | 100 | < 50 | ≤ 10
COc1ccccc1-c1cc(F)cc2c1O[C@@H](CN)CC2 [Compound 38, 1-[(2R)-6-fluoro-8-(2-methoxyphenyl)-3,4-dihydro-2H-chromen-2-yl]methanamine hydrochloride] | 80 | < 50 | ≤ 10
CNC[C@H]1CCc2cc(F)cc(-c3ccccc3Cl)c2O1 [Compound 39, {[(2R)-8-(2-chlorophenyl)-6-fluoro-3,4-dihydro-2H-chromen-2-yl]methyl}methylamine hydrochloride] | 100 | < 50 | ≤ 10
CNC[C@H]1CCc2cc(F)cc(-c3cc(Cl)ccc3Cl)c2O1 [Compound 40, {[(2R)-8-(2,5-dichlorophenyl)-6-fluoro-3,4-dihydro-2H-chromen-2-yl]methyl}methylamine hydrochloride] | 90 | < 50 | ≤ 10
CNC[C@H]1CCc2cc(F)cc(-c3ccc(Cl)cc3Cl)c2O1 [Compound 41, {[(2R)-8-(2,4-dichlorophenyl)-6-fluoro-3,4-dihydro-2H-chromen-2-yl]methyl}methylamine hydrochloride] | 90 | 50 to 200 | 10 to 50
CNC[C@H]1CCc2cc(F)cc(-c3ccccc3)c2O1 [Compound 42, {[(2R)-6-fluoro-8-phenyl-3,4-dihydro-2H-chromen-2-yl]methyl}methylamine hydrochloride] | 90 | 50 to 200 | ≤ 10
CNC[C@H]1CCc2cc(F)cc(-c3ccccc3C)c2O1 [Compound 43, {[(2R)-6-fluoro-8-(2-methylphenyl)-3,4-dihydro-2H-chromen-2-yl]methyl}methylamine hydrochloride] | 90 | 50 to 200 | ≤ 10
CNC[C@H]1CCc2cc(F)cc(-c3cccnc3)c2O1 [Compound 44, {[(2R)-6-fluoro-8-pyridin-3-yl-3,4-dihydro-2H-chromen-2-yl]methyl}methylamine hydrochloride] | 80 | > 200 | 10 to 50
NC[C@H]1CCc2cc(F)cc(-c3ccccc3Cl)c2O1 [Compound 45, {[(2R)-8-(2-chlorophenyl)-6-fluoro-3,4-dihydro-2H-chromen-2-yl]methyl}amine hydrochloride] | 90 | < 50 | ≤ 10
NC[C@H]1CCc2cc(F)cc(-c3cc(Cl)ccc3Cl)c2O1 [Compound 46, {[(2R)-8-(2,5-dichlorophenyl)-6-fluoro-3,4-dihydro-2H-chromen-2-yl]methyl}amine hydrochloride] | 90 | > 200 | 10 to 50
NC[C@H]1CCc2cc(F)cc(-c3ccc(Cl)cc3Cl)c2O1 [Compound 47, {[(2R)-8-(2,4-dichlorophenyl)-6-fluoro-3,4-dihydro-2H-chromen-2-yl]methyl}amine hydrochloride] | 90 | 50 to 200 | > 50
NC[C@H]1CCc2cc(F)cc(-c3ccccc3)c2O1 [Compound 48, {[(2R)-6-fluoro-8-phenyl-3,4-dihydro-2H-chromen-2-yl]methyl}amine hydrochloride] | 90 | 50 to 200 | ≤ 10
Cc1ccccc1-c1cc(F)cc2c1O[C@@H](CN)CC2 [Compound 49, {[(2R)-6-fluoro-8-(2-methylphenyl)-3,4-dihydro-2H-chromen-2-yl]methyl}amine hydrochloride] | 90 | < 50 | ≤ 10
NC[C@H]1CCc2cc(F)cc(-c3cccnc3)c2O1 [Compound 50, {[(2R)-6-fluoro-8-pyridin-3-yl-3,4-dihydro-2H-chromen-2-yl]methyl}amine hydrochloride] | 90 | < 50 | 10 to 50
